Test results reported in patent publication US12037324B2, “Biarylmethyl heterocycles” (Université de Montréal, priority 2016, dated 2024).

What was measured:
hAT1R [1] = molecular target: T1, hAT1R (Homo sapiens, UniProt P30556); assay: BRET β-arrestin2 biosensor assay, higher receptor expression (hAT1R 5 ng/well), HEK293 cells; format: cell-based; settings: for EC50: High AT1R Expression
T1 sequence (P30556 1-359): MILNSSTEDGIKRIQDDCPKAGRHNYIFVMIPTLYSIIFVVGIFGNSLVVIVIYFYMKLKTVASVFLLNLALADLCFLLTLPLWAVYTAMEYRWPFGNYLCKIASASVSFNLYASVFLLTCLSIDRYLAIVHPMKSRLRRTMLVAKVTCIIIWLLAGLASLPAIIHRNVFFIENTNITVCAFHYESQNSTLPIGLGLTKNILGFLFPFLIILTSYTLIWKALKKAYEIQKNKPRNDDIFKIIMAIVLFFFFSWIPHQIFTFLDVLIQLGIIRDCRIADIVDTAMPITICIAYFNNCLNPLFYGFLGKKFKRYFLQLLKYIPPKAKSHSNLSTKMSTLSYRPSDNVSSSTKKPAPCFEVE

AGTR1 [2] = molecular target: T2, AGTR1 (Homo sapiens, UniProt P30556); assay: DiscoveRx β-arrestin2 recruitment assay (enzyme complementation, Pathunter CHO-K1 AGTR1 β-arrestin cell line); format: cell-based; settings: for DiscoveRx β-arrestin2 Ymax (%): maximal response
T2 construct: host or cells: Pathunter CHO-K1 AGTR1 β-arrestin cell line (CHO-K1)
T2 sequence (P30556 1-359): T1 sequence (P30556 1-359)
Method in brief: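 Chemiluminescent enzyme-complementation read-out of β-arrestin2 recruitment to AGTR1 in engineered CHO-K1 cells after 90 min compound exposure at 37° C. Values are 4-parameter logistic EC50s in agonist mode, IC50s in antagonist mode, with efficacy relative to the maximal All response.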

AGTR1 [3] = molecular target: T2, AGTR1; assay: DiscoveRx IP1 accumulation assay (HTRF), agonist mode, Pathunter CHO-K1 AGTR1 β-arrestin cell line; format: cell-based; settings: for EC50: read-out: IP-1 EC50
Method in brief: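 Agonist mode in CHO-K1 AGTR1 β-arrestin cells plated 14-16 h before; compounds at varying concentrations for 90 min at 37° C, IP1 accumulation read by HTRF (D2-conjugate and anti-IP1 cryptate, 20 min room temperature). EC50 from 4-parameter logistic fit; activity given as percentage of maximal AII effect.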

hAT1R [4] = molecular target: T1, hAT1R; assay: cell-based; settings: agonist mode; for EC50: read-out: BRET P63 EC50
hAT1R [5] = molecular target: T1, hAT1R; assay: cell-based; settings: section of the 42nd table ending at r951, example numbering restarts after the DiscoveRx section; read-out: β-arrestin2 EC50
[6] = DiscoveRx β-arrestin2 recruitment

SMILES | BRET β-Arrestin2 High AT1R Expression Ymax (%) (hAT1R [1]) | EC50 (hAT1R [1]) [nM] | EC50 (AGTR1 [2]; [6]) [nM] | DiscoveRx β-arrestin2 Ymax (%) (AGTR1 [2]; [6]) | IP-1 Ymax (%) (AGTR1 [3]) | EC50 (AGTR1 [3]) [nM] | BRET P63 Ymax (hAT1R [4]) [%] | EC50 (hAT1R [4]) [nM] | EC50 (AGTR1 [2]) [nM] | EC50 (hAT1R [5]) [nM]
CCc1nc2c(C)cc(C)nc2n1Cc1ccc(-c2cc(-c3ccccc3O)ccc2C(=O)O)cc1 [Example 184] | 85.9 | 14.7 | 31 | 51.2 | 12.0 | 110 |  |  |  | 
CCc1nc2c(C)cc(C)nc2n1Cc1ccc(-c2cc(-c3ccc(C(=O)N(C)C)cc3)ccc2C(=O)O)cc1 [Example 185] | 86.7 | 149 | 139 | 48.9 | 13.8 | 204 | 11.7 | 447 |  | 
CCc1nc2c(C)cc(C)nc2n1Cc1ncc(-c2cc(-c3cccc(C)c3)ccc2C(=O)O)cn1 [Example 198, 3-(2-((2-ethyl-5,7-dimethyl-3H-imidazo[4,5-b]pyridin-3-yl)methyl)pyrimidin-5-yl)-3′-methylbiphenyl-4-carboxylic acid] | 95.8 | 428 | 122 | 33.0 | 14.6 | 646 | 13.4 | 7620 |  | 
CCc1nc2c(C)cc(C)nc2n1Cc1cnc(-c2cc(-c3cccc(C)c3)ccc2C(=O)O)cn1 [Example 199, 3-(5-((2-ethyl-5,7-dimethyl-3H-imidazo[4,5-b]pyridin-3-yl)methyl)pyrazin-2-yl)-3′-methylbiphenyl-4-carboxylic acid] | 88.5 | 223 | 273 | 34.2 | 9.3 | 713 | 9.6 | 571 |  | 
CCc1nc2c(C)cc(C)nc2n1Cc1ccc(-c2cc(-c3cccc(C)c3)ccc2C(=O)O)nn1 [Example 200, 3-(6-((2-ethyl-5,7-dimethyl-3H-imidazo[4,5-b]pyridin-3-yl)methyl)pyridazin-3-yl)-3′-methylbiphenyl-4-carboxylic acid] | 54.3 | 1780 | 709 | 25.1 | 11.4 | 2720 | 4.3 | 2040 |  | 
CCc1nc2c(C)cc(C)nc2n1Cc1cnc(-c2cc(-c3cccc(C)c3)ccc2C(=O)O)nc1 [Example 202, 3-(5-((2-ethyl-5,7-dimethyl-3H-imidazo[4,5-b]pyridin-3-yl)methyl)pyrimidin-2-yl)-3′-methylbiphenyl-4-carboxylic acid] | 52.0 | 1620 | 1110 | 19.4 | 5.7 | 2940 |  | > 100000 |  | 
CCc1nc2c(C)cc(C)nc2n1Cc1ccc(-c2cc(-c3cccc(C)c3)ccc2C(=O)O)nc1 [Example 203, 3-(5-((2-ethyl-5,7-dimethyl-3H-imidazo[4,5-b]pyridin-3-yl)methyl)pyridin-2-yl)-3′-methyl-[1,1′-biphenyl]-4-carboxylic acid] | 79.1 | 124 | 162 | 32.3 | 34.9 | 5370 | 5.4 | 154 |  | 
CCc1nc2c(C)cc(C)nc2n1Cc1ccc(-c2cc(Oc3cccc(Cl)c3)ccc2-c2nnn[nH]2)cc1 [Example 206] | 57.9 | 15.8 | 11.1 | 21.2 | 4.8 | 35.4 |  |  |  | 
CCc1nc2c(C)cc(C)nc2n1Cc1ccc(-c2cc(Oc3cccc(OC(F)(F)F)c3)ccc2-c2nnn[nH]2)cc1 [Example 207] | 74.8 | 22 | 11.5 | 23.1 | 2.5 | 39.1 |  |  |  | 
CCc1nc2c(C)cc(C)nc2n1Cc1ccc(-c2cc(Oc3ccccc3)cc(C)c2-c2nnn[nH]2)cc1 [Example 211, 2-Ethyl-5,7-dimethyl-3-((3′-methyl-5′-phenoxy-2′-(1H-tetrazol-5-yl)-[1,1′-biphenyl]-4-yl)methyl)-3H-imidazo[4,5-b]pyridine] | 80.2 | 67 | 96.8 | 21.2 | 8.7 | 235 |  |  |  | 
CCc1nc2c(C)cc(C)nc2n1Cc1ccc(-c2cc(OCc3ccccc3)ccc2-c2nnn[nH]2)cc1 [Example 212, 3-((5′-(Benzyloxy)-2′-(1H-tetrazol-5-yl)-[1,1′-biphenyl]-4-yl)methyl)-2-ethyl-5,7-dimethyl-3H-imidazo[4,5-b]pyridine] | 29.2 | 10.6 | 10.1 | 11.2 | 3.8 | 20.1 |  |  |  | 
CCc1nc2c(C)cc(C)nc2n1Cc1ccc(-c2cc(Oc3ccccc3)ccc2C(=O)O)cc1 [Example 213, 4′-((2-Ethyl-5,7-dimethyl-3H-imidazo[4,5-b]pyridin-3-yl)methyl)-5-phenoxy-[1,1′-biphenyl]-2-carboxylic acid] | 89.9 | 92.9 | 215 | 27.3 | 6.9 | 862 |  |  |  | 
CCc1nc2c(C)cc(C)nc2n1Cc1ccc(-c2cc(-n3cc(CCO)nn3)ccc2-c2nnn[nH]2)cc1 [Example 226] | 35.0 | 348 | 242 | 17.5 | 6.7 | 499 |  | > 100000 |  | 
CCc1nc2c(C)cc(C)nc2n1Cc1ccc(-c2cc(-n3cc(C4=CCCC4)nn3)ccc2-c2nnn[nH]2)cc1 [Example 229] | 82.1 | 25.7 | 39 | 24.0 | 6.7 | 195 |  | > 100000 |  | 
CCc1nc2c(C)cc(C)nc2n1Cc1ccc(-c2cc(-c3cn(Cc4ccccc4)nn3)ccc2-c2nnn[nH]2)cc1 [Example 238] | 62.6 | 281 | 198 | 22.4 | 9.6 | 1260 |  | > 100000 |  | 
CCc1nc2c(C)cc(C)nc2n1Cc1ccc(-c2cc(Oc3ccc(C)cn3)ccc2-c2nn[nH]n2)cc1 [Example 248] | 79.5 | 14 | 26.5 | 18.2 | 6.8 | 81.7 |  |  |  | 
CCc1nc2c(C)cc(C)nc2n1Cc1ccc(-c2cc(Oc3cc(N)ccn3)ccc2-c2nn[nH]n2)cc1 [Example 249] | 80.3 | 8 | 23.8 | 34.2 | 17.6 | 70.5 | 6.6 | 9.5 |  | 
CCc1nc2c(C)cc(C)nc2n1Cc1ccc(-c2cc(Oc3nccs3)ccc2-c2nn[nH]n2)cc1 [Example 252] | 41.4 | 29.4 | 34.3 | 15.8 | 8.8 | 144 |  | > 100000 |  | 
CCc1nc2c(C)cc(C)nc2n1Cc1ccc(-c2cc(Oc3cncc(OC)c3)ccc2-c2nn[nH]n2)cc1 [Example 261] | 62.3 | 40 | 137 | 17.3 | 11.5 | 782 |  | > 100000 |  | 
Cc1nc(C)n(Cc2ccc(-c3cc(-c4ccccc4)ccc3-c3nn[nH]n3)cc2)n1 [Example 456, 5-(4″-((3,5-Dimethyl-1H-1,2,4-triazol-1-yl)methyl)-[1,1′:3′,1″-terphenyl]-4′-yl)-2H-tetrazole] |  |  |  |  |  |  |  |  | 1870 | 1970
Cc1cnn(-c2ccc(-c3nn[nH]n3)c(-c3ccc(Cn4nc(C)nc4C)cc3)c2)c1 [Example 457, 5-(4′-((3,5-Dimethyl-1H-1,2,4-triazol-1-yl)methyl)-5-(4-methyl-1H-pyrazol-1-yl)-[1,1′-biphenyl]-2-yl)-2H-tetrazole] |  |  |  |  |  |  |  |  | 1140 | 993
